Source: patent publication US20060122267A1, “Compositions and methods for attenuating mitochondria-mediated cell injury” (priority 2003, published 2006)
“Also recorded” adds a separate entry of the source.

Experiments:
[1] = tested on: isolated adult rat cardiomyocytes; experiment: Mitochondrial H+ leak in cardiomyocytes (respiration divided by TMRE fluorescence) after ischemia-reperfusion; format: cell-based; settings: doses that protect cardiomyocyte viability
Experimental: Cardiomyocyte respiration rate was measured with an oxygen electrode, and membrane potential with the fluorescent dye TMRE (20 nM) in a fluorimeter. H^+ leak is essentially the amount of work the respiratory chain must do to maintain a given membrane potential, and experimentally is derived by dividing respiration by TMRE fluoresence. […] All data are means±SEM, N>3.
Adult rat cardiomyocytes were prepared by collagenase perfusion according to standard methods (Dai, et al. (2001) supra), yielding ˜4×10^6 cells per heart, >80% rod-shaped and viable. Incubations were in a shaking water bath at 37° C., each utilizing 5×10^5 cells in 5 mL of the KH buffers described below. For the control, cells were incubated for 2 hours in oxygenated KH buffer (95/5 O2/CO2). For ischemia-reperfusion treatment, cells were subjected to 30 minutes in oxygenated KH buffer, 1 hour in “ischemic” KH buffer (95/5 N2/CO2, pH 6.5, no glucose), and 30 minutes in oxygenated KH buffer. […] At the end of each protocol, cell viability was assayed (Trypan blue), and mitochondrial function determined (measurement of ΔΨm with the fluorescent probe TMRE, respiration with an O2 electrode, and S-nitrosothiol content by chemiluminescence and biotin-switch.

[2] = tested on: isolated adult rat cardiomyocytes; experiment: Cardiomyocyte model of ischemia-reperfusion injury, cell viability by Trypan blue exclusion; format: cell-based
Experimental: Isolated adult rat cardiomyocytes were subjected to 1 hour ischemia (anoxic, glucose free medium, pH 6.5) followed by 30 minutes reoxygenation (labeled “HR”). Cell viability was assayed by Trypan blue exclusion. […] All data are means±SEM, N>3.
Adult rat cardiomyocytes were prepared by collagenase perfusion according to standard methods (Dai, et al. (2001) supra), yielding ˜4×10^6 cells per heart, >80% rod-shaped and viable. Incubations were in a shaking water bath at 37° C., each utilizing 5×10^5 cells in 5 mL of the KH buffers described below. For the control, cells were incubated for 2 hours in oxygenated KH buffer (95/5 O2/CO2). For ischemia-reperfusion treatment, cells were subjected to 30 minutes in oxygenated KH buffer, 1 hour in “ischemic” KH buffer (95/5 N2/CO2, pH 6.5, no glucose), and 30 minutes in oxygenated KH buffer. For the ischemia-reperfusion injury and test compound group of cells, ischemia-reperfusion injury was carried out as described above with test compound present during the 30 minute equilibration prior to ischemia-reperfusion and absent during ischemia. […] At the end of each protocol, cell viability was assayed (Trypan blue), and mitochondrial function determined (measurement of ΔΨm with the fluorescent probe TMRE, respiration with an O2 electrode, and S-nitrosothiol content by chemiluminescence and biotin-switch.

mitochondrial proteins = experiment: Biotin-switch analysis of mitochondrial protein S-nitrosation; format: biochemical, rat; settings: for S-nitrosation of entire mitochondrial protein extract, comparison of NO donors: S-nitrosoglutathione 1 mM, DETA-NONOate 2 mM, ONOO- 3 additions of 100 μM, 37° C., 40 minutes
Experimental: Rat heart mitochondria were isolated using differential centrifugation (Tompkins, et al. (2005) Biochim. Biophys. Acta PMID: 16278076). Protein was determined by the Folin-phenol method (Lowry, et al. (1951) J. Bio. Chem. 193:265-75) against a standard curve constructed using bovine serum albumin. Mitochondrial incubations and all subsequent steps were performed in the dark. One mg of mitochondrial protein was suspended in 1 mL of mitochondrial respiration buffer (Tompkins, et al. (2005) supra) containing respiratory substrates glutamate (5 mM), malate (2.5 mM) and succinate (5 mM). […] Samples were centrifuged (5 minutes, 14,000×g), and supernatants removed. The pellets were then resuspended in 1 mL of respiration buffer, and centrifuged again. Pellets were frozen in liquid N2 for subsequent analysis. For ONOO^− treatments, 4 μL of 25 mM ONOO^− stock (100 μM final concentration) was added the cap of the reaction tube, the cap quickly closed and the tube shaken immediately. The process was then repeated twice at 30 second intervals, for a total of 3 additions. Mitochondria were then pelleted, washed, and frozen as for S-nitrosoglutathione samples. Complex I activity was assayed as the rotenone-sensitive oxidation of NADH, at 340 nm in the presence of coenzyme Q1 (Borutaite, et al. (2000) supra). Complex IV was assayed by monitoring the cyanide-sensitive first-order oxidation of reduced cytochrome c, at 550 nm according to established methods (Cleeter, et al. (1994) supra).
For biotin-switch analysis, intact mitochondrial pellets (1 mg protein solubilized in extraction buffer) or chromatography column fractions were analyzed in accordance with known methods (Jaffrey & Snyder (2001) supra). Samples were separated in duplicate on non-reducing SDS-PAGE gels; half the gel was stained with COOMASSIE® blue, and the other half blotted and probed with streptavidin-HRP and ECL™ detection (GE biosciences). Blots and stained gels were aligned, and S-nitrosated proteins excised, trypsinized, and identified by peptide mass fingerprinting. Mass spectra (MALDI-TOF) were analyzed using the MASCOT™ algorithm available on the world-wide web at matrixscience.com.

perfused rat hearts = experiment: Langendorff isolated perfused rat heart model of ischemia-reperfusion injury; settings: 10 μM infused during equilibration; 25 minutes global ischemia, 30 minutes reperfusion; dark
Experimental: Hearts were perfused in constant flow mode, with Krebs-Henseleit (KH) buffer, gassed with 95/5 O2/CO2. Following equilibration (during which S-nitroso-2-mercaptopropylglycine was infused at 10 μM final concentration), global ischemia was imposed for 25 minutes, followed by 30 minutes of reperfusion. Cardiac functional parameters were measured throughout, with a left-ventricular balloon attached to a pressure transducer. Recovery of rate pressure product (RPP, i.e., left ventricular developed pressure multiplied by heart rate) was greater in S-nitroso-2-mercaptopropylglycine treated hearts. Control hearts in these experiments were subject to dark conditions.
Rat hearts were perfused according to methods well-known in the art (Digerness, et al. (2003) J. Thorac. Cardiovasc. Surg. 125:863-871), with Krebs-Henseleit (KH) buffer, gassed with 95/5 O2/CO2. […] Cardiac functional parameters (left ventricular pressure, rate pressure product, oxygen consumption, diastolic stiffness, etc.) were measured throughout, and mitochondria were isolated at the end of the procedure. Several mitochondrial parameters are then determined including respiration, Ca^2+ loading capacity, reactive oxygen species generation, permeability transition pore opening threshold, respiratory complex activities (Brookes, et al. (2002) Methods Enzymol. 359:305-319), and protein S-nitrosation as disclosed herein.

[3] = tested on: cell and organ models of ischemia-reperfusion; settings: cited from earlier work
[4] = cited from earlier work

CC(SN=O)C(=O)NCC(=O)O (stereo not shown)
effect on increase in mitochondrial H+ leak induced by ischemia-reperfusion [1]: prevent large increases in H^+ leak; also recorded: protect against the large increase in proton leak
protection of cardiomyocyte viability from ischemia-reperfusion injury ([2]; 10 μM or 20 μM, 1 hour ischemia, 30 minutes reoxygenation): dose-dependent and significant protection
protection of cardiomyocyte viability compared with ischemic preconditioning (IPC) ([2]; higher dose, 20 μM): more effective than IPC
S-nitrosation of mitochondrial proteins compared with S-nitrosoglutathione (mitochondrial proteins; same concentrations, 10-100 μM): much greater degree of S-nitrosation of mitochondrial proteins than did S-nitrosoglutathione
recovery of rate pressure product (RPP) after ischemia-reperfusion versus control hearts (perfused rat hearts): greater

CC(S)C(=O)NCC(=O)O (stereo not shown) [2-mercaptopropionylglycine, 2-Mercaptopropionylglycine]
concentrations required to elicit protection [3]: 0.3 to 1.0 mM
bioavailability ([4]; in vivo): bioavailable
cellular and mitochondrial distribution ([4]; radioactive tracer, whole animals): readily enters cells and accumulates in mitochondria

NCCN(CCN)/[N+]([O-])=N/O [DETA-NONOate]
S-nitrosation of entire mitochondrial protein extract, comparison of NO donors (mitochondrial proteins): S-nitrosoglutathione resulted in far more S-nitrosation than DETA-NONOate or ONOO^−

O=NOO [ONOO^−, peroxynitrite]
S-nitrosation of entire mitochondrial protein extract, comparison of NO donors (mitochondrial proteins): S-nitrosoglutathione resulted in far more S-nitrosation than DETA-NONOate or ONOO^−
